Source: patent US3951954A, “Novel oxofuryl ester derivatives of penicillin and cephalosporin” (priority 1971, dated 1976)
Where a name gives a salt, the structure may show the parent alone.

Experiments:
[1] = Chemical Abstracts 45, 4824h (1951); 55, 8653d (1961); cited from earlier work
liver = conditions: Biochem. Pharmacol. 16, 1533-1537 (1967) and others; cited from earlier work
[2] = Concentration of ampicillin in blood plasma of rats after oral administration (Experiment a); conditions: rat, in vivo, 20 mg/kg
From the text: Now, for showing the excellent properties of the compounds of this invention, the experiments of testing the concentration of the compound in blood when it was orally administered and the results thereof are shown in the following examples together with the results of the tests made about ampicillin and pivampicillin.
Each of ampicillin tri-hydrate, pivampicillin hydrochloride-mono-hydrate, and the hydrochloride of the aimed compound of this invention was orally administered to rats (male, each group five rats) in an amount of 20 mg/kg as ampicillin and after 0.5 hour, the blood was drawn and the concentration of ampicillin in the blood plasma was measured.

[3] = background statement; cited from earlier work

Structure (SMILES): C=O [formaldehyde]
- toxic property compared with other aldehydes of larger molecular weight [1]: about 50 times
- influence on liver (liver): bad influences on a liver

Structure (SMILES): CC1(C)S[C@@H]2[C@H](NC(=O)[C@H](N)c3ccccc3)C(=O)N2[C@H]1C(=O)OC1OC(=O)c2ccccc21 (some centres unmarked) [Example 2, ampicillin 1-oxo-1,3-dihydroisobenzofuran-3-yl ester hydrochloride]
- Concentration of ampicillin in blood plasma ([2]; 30 min): 5580 ng/mL

Structure (SMILES): CC1(C)S[C@@H]2[C@H](NC(=O)[C@H](N)c3ccccc3)C(=O)N2[C@H]1C(=O)O [Ampicillin tri-hydrate, reference compound]
- concentration at 0.5 h [2]: 1000 ng/mL

Structure (SMILES): CC1(C)S[C@@H]2C(NC(=O)C(N)c3ccccc3)C(=O)N2[C@H]1C(=O)O (stereo partly drawn) [ampicillin, 6-(α-aminophenylacetamido)penicillanic acid]
- extent of absorption by oral administration [3]: not necessarily sufficient
